Common to all, as to type: organism-based
The subject of series [1] is Phaseolus vulgaris. Put plainly: Toxicity in Phaseolus vulgaris (white dry bean) assessed as visible injury on leaves at recommended dose treated at pre-emergence application after 14 days. Particulars: in vivo, other, 336 h.
For series [2], the system named is Phaseolus vulgaris. In words: Toxicity in Phaseolus vulgaris (kidney dry bean) assessed as visible injury on leaves at recommended dose treated at pre-plant incorporated application after 14 days. Particulars: in vivo, other, 336 h.
Series [3] relates to Phaseolus vulgaris. In words: Toxicity in Phaseolus vulgaris (cranberry dry bean) assessed as visible injury on leaves at recommended dose treated at pre-plant incorporated application after 14 days. Particulars: in vivo, other, 336 h.
Series [4] relates to Phaseolus vulgaris. Put plainly: Toxicity in Phaseolus vulgaris (dry bean) assessed as visible injury on leaves at 280 to 560 g a.i. ha'-1 after 28 days. Conditions: in vivo, 672 h.
Series [5] relates to Phaseolus vulgaris. Put plainly: Toxicity in Phaseolus vulgaris (dry bean)assessed as visible injury on leaves at 280 to 560 g a.i. ha'-1 after 7 days. Particulars: in vivo, 168 h.
The test system of series [6] is Phaseolus vulgaris. Put plainly: Toxicity in Phaseolus vulgaris (white dry bean) assessed as visible injury on leaves at recommended dose treated at pre-plant incorporated application after 14 days. Particulars: in vivo, other, 336 h.
The test system of series [7] is Phaseolus vulgaris. In words: Toxicity in Phaseolus vulgaris (black dry bean) assessed as visible injury on leaves at 2 times recommended dose treated at pre-plant incorporated application after 14 days. Conditions: in vivo, other, 336 h.
Series [8] concerns Phaseolus vulgaris. In words: Toxicity in Phaseolus vulgaris (cranberry dry bean) assessed as visible injury on leaves at 2 times recommended dose treated at pre-plant incorporated application after 14 days. Conditions: in vivo, other, 336 h.
For series [9], the system named is Phaseolus vulgaris. Put plainly: Toxicity in Phaseolus vulgaris (white dry bean) assessed as visible injury on leaves at 2 times recommended dose treated at pre-emergence application after 14 days. Conditions: in vivo, other, 336 h.
The test system of series [10] is Phaseolus vulgaris. In words: Toxicity in Phaseolus vulgaris (dry bean) assessed as plant height at 280 to 560 g a.i. ha'-1. Conditions: in vivo.
The test system of series [11] is Phaseolus vulgaris. Put plainly: Toxicity in Phaseolus vulgaris (black dry bean) assessed as visible injury on leaves at recommended dose treated at pre-plant incorporated application after 14 days. Conditions: in vivo, other, 336 h.
For series [12], the system named is Phaseolus vulgaris. In words: Toxicity in Phaseolus vulgaris (dry bean) assessed as shoot dry weight per row at 280 to 560 g a.i. ha'-1. Conditions: in vivo.
Series [13] deals with Phaseolus vulgaris. Put plainly: Toxicity in Phaseolus vulgaris (cranberry dry bean) assessed as visible injury on leaves at recommended dose treated at pre-emergence application after 14 days. Particulars: in vivo, other, 336 h.
For series [14], the system named is Phaseolus vulgaris. Put plainly: Toxicity in Phaseolus vulgaris (black dry bean) assessed as visible injury on leaves at recommended dose treated at pre-emergence application after 14 days. Particulars: in vivo, other, 336 h.
Series [15] concerns Phaseolus vulgaris. In words: Toxicity in Phaseolus vulgaris (kidney dry bean) assessed as visible injury on leaves at 2 times recommended dose treated at pre-plant incorporated application after 14 days. Particulars: in vivo, other, 336 h.
Series [16] relates to Phaseolus vulgaris. In words: Toxicity in Phaseolus vulgaris (kidney dry bean) assessed as visible injury on leaves at 2 times recommended dose treated at pre-emergence application after 14 days. Conditions: in vivo, other, 336 h.
The subject of series [17] is Phaseolus vulgaris. Put plainly: Toxicity in Phaseolus vulgaris (dry bean) assessed as yield at 280 to 560 g a.i. ha'-1. Particulars: in vivo.
Series [18] has as its system Phaseolus vulgaris. Put plainly: Toxicity in Phaseolus vulgaris (white dry bean) assessed as visible injury on leaves at 2 times recommended dose treated at pre-plant incorporated application after 14 days. Conditions: in vivo, other, 336 h.
Series [19] deals with Phaseolus vulgaris. In words: Toxicity in Phaseolus vulgaris (cranberry dry bean) assessed as visible injury on leaves at 2 times recommended dose treated at pre-emergence application after 14 days. Conditions: in vivo, other, 336 h.
Series [20] relates to Phaseolus vulgaris. In words: Toxicity in Phaseolus vulgaris (black dry bean) assessed as visible injury on leaves at 2 times recommended dose treated at pre-emergence application after 14 days. Conditions: in vivo, other, 336 h.
Series [21] has as its system Phaseolus vulgaris. In words: Toxicity in Phaseolus vulgaris (kidney dry bean) assessed as visible injury on leaves at recommended dose treated at pre-emergence application after 14 days. Particulars: in vivo, other, 336 h.
For series [22], the system named is Phaseolus vulgaris. In words: Toxicity in Phaseolus vulgaris (dry bean)assessed as visible injury on leaves at 280 to 560 g a.i. ha'-1 after 14 days. Particulars: in vivo, 336 h.
Series [23] has as its system Phaseolus vulgaris. Put plainly: Toxicity in Phaseolus vulgaris (dry bean) assessed as visible injury on leaves at 1373 to 2746 g a.i. ha'-1 after 28 days. Conditions: in vivo, 672 h.
Series [24] concerns Phaseolus vulgaris. Put plainly: Toxicity in Phaseolus vulgaris (dry bean) assessed as visible injury on leaves at 1373 to 2746 g a.i. ha'-1 after 14 days. Particulars: in vivo, 336 h.
Series [25] relates to Phaseolus vulgaris. Put plainly: Toxicity in Phaseolus vulgaris (dry bean) assessed as visible injury on leaves at 1373 to 2746 g a.i. ha'-1 after 7 days. Conditions: in vivo, 168 h.
In series [26] the test system is Phaseolus vulgaris. Put plainly: Toxicity in Phaseolus vulgaris (dry bean) assessed as yield at 1373 to 2746 g a.i. ha'-1. Particulars: in vivo.
In series [27] the test system is Phaseolus vulgaris. In words: Toxicity in Phaseolus vulgaris (dry bean) assessed as shoot dry weight per row at 1373 to 2746 g a.i. ha'-1. Particulars: in vivo.
Series [28] deals with Phaseolus vulgaris. In words: Toxicity in Phaseolus vulgaris (dry bean) assessed as plant height at 1373 to 2746 g a.i. ha'-1. Particulars: in vivo.

The source of these data is ChEMBL document CHEMBL3045914, “Response of dry bean to pre-plant incorporated and pre-emergence applications of S-metolachlor and fomesafen” (Crop Prot, 2009).

Take `CS(=O)(=O)NC(=O)c1cc(Oc2ccc(C(F)(F)F)cc2Cl)ccc1[N+](=O)[O-]` [FOMESAFEN]: the Activity was 0.1% in the series on Phaseolus vulgaris [1]; 0.3% in the series on Phaseolus vulgaris [2]; 0.1% with Phaseolus vulgaris [3]; 0% in the series on Phaseolus vulgaris [4]; 0.2% with Phaseolus vulgaris [5]; 0.5% with Phaseolus vulgaris [6]. The Activity with Phaseolus vulgaris [7] came out at 0.5%; in the series with Phaseolus vulgaris [8] it was 0%; with Phaseolus vulgaris [9], 0.4%; with Phaseolus vulgaris [10] it was 49 cm; in the series with Phaseolus vulgaris [11], 0.8%; in the series with Phaseolus vulgaris [12], 40 g. Moreover, the Activity in the series on Phaseolus vulgaris [13] was 0%; with Phaseolus vulgaris [14], 1%; in the series with Phaseolus vulgaris [15] it was 0.2%; in the series on Phaseolus vulgaris [16] it was 0.2%; in the series with Phaseolus vulgaris [18], 0.2%; with Phaseolus vulgaris [19] it was 0%. Also, the results for the Activity in the series on Phaseolus vulgaris [20], in the series with Phaseolus vulgaris [21] and in the series on Phaseolus vulgaris [22] were 1.2%, 0% and 0.2%, respectively. In the series with Phaseolus vulgaris [17], the Crop_yield was determined as 2.4 tons/ha.

As for `CCc1cccc(C)c1N(C(=O)CCl)[C@@H](C)COC` [S-METOLACHLOR], the Activity is recorded as 4.2% in the series with Phaseolus vulgaris [1]; 0.1% in the series on Phaseolus vulgaris [2]; 0.2% in the series with Phaseolus vulgaris [23]; 0.1% in the series on Phaseolus vulgaris [3]; 0.5% in the series on Phaseolus vulgaris [6]; 0.7% in the series with Phaseolus vulgaris [7]. In addition, the Activity in the series with Phaseolus vulgaris [8] was found to be 0.2%; with Phaseolus vulgaris [24] it was 1%; in the series with Phaseolus vulgaris [9], 6.6%; in the series with Phaseolus vulgaris [25], 0.7%; in the series on Phaseolus vulgaris [11], 0.9%; with Phaseolus vulgaris [13], 0%. For the same molecule, the Activity in the series on Phaseolus vulgaris [14] is reported as 3.4%; in the series on Phaseolus vulgaris [27], 39 g; in the series on Phaseolus vulgaris [28] it was 49 cm; with Phaseolus vulgaris [15], 0.7%; in the series on Phaseolus vulgaris [16], 0.1%; with Phaseolus vulgaris [18] it was 1.6%. Moreover, the Activity in the series with Phaseolus vulgaris [19] came to 0.1%; in the series with Phaseolus vulgaris [20], 5.5%; in the series on Phaseolus vulgaris [21], 0%. Besides, the Crop_yield with Phaseolus vulgaris [26] is given as 2.4 tons/ha.
